Measured values published in patent US10954193B2 (Vanderbilt University, priority 2013, dated 2021).
Like-named read-outs stand apart in the source and are kept apart here.

Molecular target: recombinant Mcl-1 (residues 172-327) (Homo sapiens (Human), UniProt Q07820)
Experiment: Bak peptide binding assay, fluorescence polarization anisotropy competition (FITC-Bak), Mcl-1;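 note: displacement of labeled Bak peptide read by fluorescence anisotropy, 10-point threefold dilutions from 20 µM top dose in 5% DMSO, 90 min incubation at room temperature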
[1] = Table 3, binned ranges, FITC-Bak peptide 10 nM, Mcl-1 14 nM, read-out: Ki for inhibition of Mcl-1

Sequence of recombinant Mcl-1 (residues 172-327) (Q07820 172-327): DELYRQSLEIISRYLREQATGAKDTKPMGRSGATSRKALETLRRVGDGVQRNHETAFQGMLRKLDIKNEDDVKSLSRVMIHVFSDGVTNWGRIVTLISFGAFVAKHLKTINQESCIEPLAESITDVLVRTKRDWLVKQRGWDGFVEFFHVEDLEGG

SMILES | Ki [1] | Ki
Cc1cc(OCCCc2cn(C(C)C(=O)NS(C)(=O)=O)c3ccccc23)cc(C)c1Cl (racemic) [Example 59, (±)-2-(3-(3-(4-chloro-3,5-dimethylphenoxy)propyl)-1H-indol-1-yl)-N-(methylsulfonyl)propanamide] | 0.501 to 0.999 µM | 
CCC(C(=O)NS(C)(=O)=O)n1cc(CCCOc2cc(C)c(Cl)c(C)c2)c2ccccc21 (racemic) [Example 60, (±)-2-(3-(3-(4-chloro-3,5-dimethylphenoxy)propyl)-1H-indol-1-yl)-N-(methylsulfonyl)butanamide] | 0.501 to 0.999 µM | 
O=C(O)Cc1cn(CCCOc2cccc3ccccc23)c2ccccc12 [Example 1, 2-(1-(3-(naphthalen-1-yloxy)propyl)-1H-indol-3-yl)acetic acid] | 1 to 9.99 µM | 
O=C(O)Cc1cn(CCCOc2ccc3ccccc3c2)c2ccccc12 [Example 2, 2-(1-(3-(naphthalen-2-yloxy)propyl)-1H-indol-3-yl)acetic acid] | 10 to 50 µM | 
Cc1cc(OCCCn2cc(CC(=O)NS(C)(=O)=O)c3ccccc32)cc(C)c1Cl [Example 4, 2-(1-(3-(4-chloro-3,5-dimethylphenoxy)propyl)-1H-indol-3-yl)-N-(methylsulfonyl)acetamide] | 1 to 9.99 µM | 
O=C(O)Cn1cc(CCCOc2cccc3ccccc23)c2ccccc21 [Example 6, 2-(3-(3-(naphthalen-1-yloxy)propyl)-1H-indol-1-yl)acetic acid] | 1 to 9.99 µM | 
O=C(O)Cn1cc(CCCOc2cccc3ccccc23)c2ccc(Cl)cc21 [Example 8, 2-(6-chloro-3-(3-(naphthalen-1-yloxy)propyl)-1H-indol-1-yl)acetic acid] | 1 to 9.99 µM | 
Cc1cc(OCCCc2cn(CC(=O)O)c3cccc(Cl)c23)cc(C)c1Cl [Example 9, 2-(4-chloro-3-(3-(4-chloro-3,5-dimethylphenoxy)propyl)-1H-indol-1-yl)acetic acid] | 0.501 to 0.999 µM | 
O=C(O)Cn1cc(CCCOc2cccc3ccccc23)c2c(Cl)cccc21 [Example 10, 2-(4-chloro-3-(3-(naphthalen-1-yloxy)propyl)-1H-indol-1-yl)acetic acid] | 1 to 9.99 µM | 
O=C(O)CCn1cc(CCCOc2cccc3ccccc23)c2ccccc21 [Example 11, 3-(3-(3-(naphthalen-1-yloxy)propyl)-1H-indol-1-yl)propanoic acid] | 1 to 9.99 µM | 
O=C(O)CCn1cc(CCCOc2cccc3ccccc23)c2c(Cl)cccc21 [Example 16, 3-(4-chloro-3-(3-(naphthalen-1-yloxy)propyl)-1H-indol-1-yl)propanoic acid] | 1 to 9.99 µM | 
Cc1cc(OCC(C)Cc2cn(CCC(=O)O)c3ccccc23)cc(C)c1Cl (stereo not drawn) [Example 17, 3-(3-(3-(4-chloro-3,5-dimethylphenoxy)-2-methylpropyl)-1H-indol-1-yl)propanoic acid] | 1 to 9.99 µM | 
CS(=O)(=O)NC(=O)CCn1cc(CCCOc2cccc3ccccc23)c2ccccc21 [Example 19, 3-(3-(3-(naphthalen-1-yloxy)propyl)-1H-indol-1-yl)-N-(methylsulfonyl)propanamide] | 1 to 9.99 µM | 
CS(=O)(=O)NC(=O)CCn1cc(CCCOc2cccc3ccccc23)c2ccc(Cl)cc21 [Example 21, 3-(6-chloro-3-(3-(naphthalen-1-yloxy)propyl)-1H-indol-1-yl)-N-(methylsulfonyl)propanamide] | 0.501 to 0.999 µM | 
CS(=O)(=O)NC(=O)CCn1cc(CCCOc2cccc3ccccc23)c2c(Cl)cccc21 [Example 23, 3-(4-chloro-3-(3-(naphthalen-1-yloxy)propyl)-1H-indol-1-yl)-N-(methylsulfonyl)propanamide] | 1 to 9.99 µM | 
CS(=O)(=O)NC(=O)Cn1cc(CCCOc2cccc3ccccc23)c2ccccc21 [Example 24, N-(methylsulfonyl)-2-(3-(3-(naphthalen-1-yloxy)propyl)-1H-indol-1-yl)acetamide] | 1 to 9.99 µM | 
CS(=O)(=O)NC(=O)Cn1cc(CCCOc2cccc3ccccc23)c2c(Cl)cccc21 [Example 28, 2-(4-chloro-3-(3-(naphthalen-1-yloxy)propyl)-1H-indol-1-yl)-N-(methylsulfonyl)acetamide] | 1 to 9.99 µM | 
Cc1cc(OCCCc2cn(CCC(=O)NS(=O)(=O)c3ccccc3)c3cc(Cl)ccc23)cc(C)c1Cl [Example 37, 3-(6-chloro-3-(3-(4-chloro-3,5-dimethylphenoxy)propyl)-1H-indol-1-yl)-N-(phenylsulfonyl)propanamide] |  | 0.101 to 0.299 µM
Cc1cc(OCCCc2cn(CCC(=O)NS(=O)(=O)C3CC3)c3cc(Cl)ccc23)cc(C)c1Cl [Example 39, 3-(6-chloro-3-(3-(4-chloro-3,5-dimethylphenoxy)propyl)-1H-indol-1-yl)-N-(cyclopropylsulfonyl)propanamide] | 0.301 to 0.5 µM | 
Cc1cc(OCCCc2cn(CCC(=O)NS(=O)(=O)c3ccc(Oc4ccccc4)cc3)c3cc(Cl)ccc23)cc(C)c1Cl [Example 40, 3-(6-chloro-3-(3-(4-chloro-3,5-dimethylphenoxy)propyl)-1H-indol-1-yl)-N-((4-phenoxyphenyl)sulfonyl)propanamide] | 0.301 to 0.5 µM | 
COc1ccc(Oc2ccc(S(=O)(=O)NC(=O)CCn3cc(CCCOc4cc(C)c(Cl)c(C)c4)c4ccc(Cl)cc43)cc2)cc1 [Example 41, 3-(6-chloro-3-(3-(4-chloro-3,5-dimethylphenoxy)propyl)-1H-indol-1-yl)-N-((4-(4-methoxyphenoxy)phenyl)sulfonyl)propanamide] | 0.101 to 0.299 µM | 
Cc1cc(OCCCc2c(C)n(CCC(=O)NS(C)(=O)=O)c3cc(Cl)ccc23)cc(C)c1Cl [Example 46, 3-(6-chloro-3-(3-(4-chloro-3,5-dimethylphenoxy)propyl)-2-methyl-1H-indol-1-yl)-N-(methylsulfonyl)propanamide] | ≤ 0.1 µM | 
Cc1cc(OCCCc2c(C#N)n(CCC(=O)O)c3ccccc23)cc(C)c1Cl [Example 48, 3-(3-(3-(4-chloro-3,5-dimethylphenoxy)propyl)-2-cyano-1H-indol-1-yl)propanoic acid] | 0.501 to 0.999 µM | 
Cc1cc(OCCCc2c(C#N)n(CC(=O)NS(C)(=O)=O)c3ccccc23)cc(C)c1Cl [Example 50, 2-(3-(3-(4-chloro-3,5-dimethylphenoxy)propyl)-2-cyano-1H-indol-1-yl)-N-(methylsulfonyl)acetamide] | 1 to 9.99 µM | 

The next lines start with results.

Ki [1] | SMILES | Ki
0.501 to 0.999 µM | CCC(C(=O)O)n1cc(CCCOc2cc(C)c(Cl)c(C)c2)c2ccccc21 (racemic) [Example 52, (±)-2-(3-(3-(4-chloro-3,5-dimethylphenoxy)propyl)-1H-indol-1-yl)butanoic acid] | 
0.501 to 0.999 µM | Cc1cc(OCCCc2cn(C(C(=O)O)c3ccccc3)c3ccccc23)cc(C)c1Cl (racemic) [Example 53, (±)-2-(3-(3-(4-chloro-3,5-dimethylphenoxy)propyl)-1H-indol-1-yl)-2-phenylacetic acid] | 
0.501 to 0.999 µM | Cc1cc(OCCCc2cn(C(C)CC(=O)O)c3ccccc23)cc(C)c1Cl (racemic) [Example 55, (±)-3-(3-(3-(4-chloro-3,5-dimethylphenoxy)propyl)-1H-indol-1-yl)butanoic acid] | 
0.501 to 0.999 µM | Cc1cc(OCCCc2cn(C(CC(=O)O)c3ccccc3)c3ccccc23)cc(C)c1Cl (racemic) [Example 56, (±)-3-(3-(3-(4-chloro-3,5-dimethylphenoxy)propyl)-1H-indol-1-yl)-3-phenylpropanoic acid] | 
0.501 to 0.999 µM | Cc1cc(OCCCc2cn(CC(=O)O)c3ccccc23)cc(C)c1Cl [Example 5, 2-(3-(3-(4-chloro-3,5-dimethylphenoxy)propyl)-1H-indol-1-yl)acetic acid] | 
0.101 to 0.299 µM | Cc1cc(OCCCc2cn(CCC(=O)O)c3cc(Cl)ccc23)cc(C)c1Cl [Example 13, 3-(6-chloro-3-(3-(4-chloro-3,5-dimethylphenoxy)propyl)-1H-indol-1-yl)propanoic acid] | 
1 to 9.99 µM | Cc1cc(OCCCc2cn(CCC(=O)NS(C)(=O)=O)c3ccccc23)cc(C)c1Cl [Example 18, 3-(3-(3-(4-chloro-3,5-dimethylphenoxy)propyl)-1H-indol-1-yl)-N-(methylsulfonyl)propanamide] | 
0.301 to 0.5 µM | Cc1cc(OCCCc2cn(CCC(=O)O)c3c(Br)cccc23)cc(C)c1Cl [Example 29, 3-(7-bromo-3-(3-(4-chloro-3,5-dimethylphenoxy)propyl)-1H-indol-1-yl)propanoic acid] | 
0.101 to 0.299 µM | Cc1cc(OCCCc2cn(CCC(=O)O)c3c(-c4c(COc5ccccc5)nn(C)c4C)cccc23)cc(C)c1Cl [Example 30, 3-(3-(3-(4-chloro-3,5-dimethylphenoxy)propyl)-7-(1,5-dimethyl-3-(phenoxymethyl)-1H-pyrazol-4-yl)-1H-indol-1-yl)propanoic acid] | 
0.301 to 0.5 µM | Cc1cc(OCCCc2cn(CCC(=O)O)c3c(-c4ccccc4)cccc23)cc(C)c1Cl [Example 31, 3-(3-(3-(4-chloro-3,5-dimethylphenoxy)propyl)-7-phenyl-1H-indol-1-yl)propanoic acid] | 
0.501 to 0.999 µM | Cc1cc(OCCCc2cn(CCC(=O)O)c3c(-c4cccnc4)cccc23)cc(C)c1Cl [Example 33, 3-(3-(3-(4-chloro-3,5-dimethylphenoxy)propyl)-7-(pyridin-3-yl)-1H-indol-1-yl)propanoic acid] | 
0.101 to 0.299 µM | Cc1cc(OCCCc2cn(CCC(=O)O)c3c(-c4cc[nH]n4)cccc23)cc(C)c1Cl [Example 35, 3-(3-(3-(4-chloro-3,5-dimethylphenoxy)propyl)-7-(1H-pyrazol-3-yl)-1H-indol-1-yl)propanoic acid] | 
0.101 to 0.299 µM | Cc1cc(OCCCc2cn(CCC(=O)O)c3c(-c4cn[nH]c4)cccc23)cc(C)c1Cl [Example 36, 3-(3-(3-(4-chloro-3,5-dimethylphenoxy)propyl)-7-(1H-pyrazol-4-yl)-1H-indol-1-yl)propanoic acid] | 
0.301 to 0.5 µM | Cc1cc(OCCCc2cn(CCC(=O)NS(=O)(=O)Cc3ccccc3)c3cc(Cl)ccc23)cc(C)c1Cl [Example 38, N-(benzylsulfonyl)-3-(6-chloro-3-(3-(4-chloro-3,5-dimethylphenoxy)propyl)-1H-indol-1-yl)propanamide] | 
1 to 9.99 µM | Cc1cc(OCCn2cc(CC(=O)O)c3ccccc32)cc(C)c1Cl [Example 62, 2-(1-(2-(4-chloro-3,5-dimethylphenoxy)ethyl)-1H-indol-3-yl)acetic acid] | 
